This note sets out measurements from patent US8968807B1, “Use of ethylene diamine metal complexes to deliver highly absorbable metals for animal nutrition” (Zinpro Corporation, priority 2013, dated 2015).

Data set [1] in a line: Sheep bolus test, manganese blood uptake. The data set is classed as in vivo. Conditions: 30 hour. An excerpt: Tests like in Example 19 and 21 were run with MnSO4 in comparison with Mn-EDA of Example 10. At all points Manganese blood uptake of the sheep was at lower levels than other tested ligands. This may be a characteristic of Mn itself.
The conditions of data set [2]: sheep, bolus; versus FeSO4; most notably at 30 hours; FIG. 3. On the procedure: In the following examples sheep were given a bolus injection like in Example 19 and then blood uptake was measured at various intervals.
The Fe-EDA (Example 9) and the Fe-EDA (Example 16) were tested for iron uptake in the blood in comparison with the bolus injection of FeSO4.

Another data set relates to Cobb male broilers. Description: Poultry trial with Cobb male broilers. The following applies: Cobb male broilers from 1 day old; 80 ppm supplemental Zn; Zn-EDA group = 40 ppm Zn from ZnSO4 + 40 ppm Zn from Zn-EDA. The data set is classed as in vivo. The text has this: Animals were Cobb male broilers. The experiment was started with 1 day old animals. ZnSO4 was used as a comparative example using 80 ppm zinc from ZnSO4. Zn-EDA replaced 40 ppm of the zinc so there was 40 ppm Zn from ZnSO4 and 40 ppm Zn from Zn-EDA and compared to 80 ppm Zn from ZnSO4. Actual broiler integrator diets were used. They contain 500 ftu of phytase and an NSP enzyme (nonstarch polysaccride degrading enzyme). The plane of nutrition is targeted to be at AgriStat's 75th percentile. […] There were 12 replicates per treatment and 21 birds per replicate.

As for “1,2 Diaminoethane dihydrochloride—manganese(II) chloride [Example 10]”, the Manganese blood uptake in data set [1] worked out at 33.

`O=S(=O)([O-])[O-].[Mn+2]` [MnSO4] had a Manganese blood uptake in data set [1] of 24. On to `NCCN.[Cl][Fe][Cl]` [Example 16, 1,2 Diaminoethane—iron(II) chloride], for which the “iron uptake in the blood” value in data set [2] is reported as “better at every interval than inorganic iron sulfate”.

For `O=S(=O)([O-])[O-].[Zn+2]` [ZnSulfate, ZnSO4], in the data set on Cobb male broilers, the “Body Wt.” value was found to be 2.212 kg, the “Feed Conversion” value is 1.531 and the Mortality turned out to be 4.71%. As to `Cl.Cl.NCCN.[Cl][Fe][Cl]` [Example 9, 1,2 Diaminoethane dihydrochloride—iron(II) chloride], the “iron uptake in the blood” value in data set [2] is recorded as “better at every interval than inorganic iron sulfate”.
